Here are results for 6 substances from US11512335B2, “Vertebrate cells and methods for recombinantly expressing a polypeptide of interest” (Novartis AG, priority 2014, dated 2022).

One may read the Ki as a dissociation constant, usually derived from enzyme kinetics or from competition with a known ligand.

The subject of one data set is C1r (C1ra) mRNA. Description: siRNA silencing in CHO-K1 derived cells, mRNA expression by real-time RT-PCR. The data set is classed as cell-based, Chinese hamster. The following applies: for residual protease gene-expression: siRNA negative control cells = 100%. On the procedure: (§1) First, the proteolytic cleavage site(s) of different recombinant proteins that are prone to clipping were analyzed using different techniques including CE-SDS analysis, mass spectrometry and in silico analysis (data not shown). […] The siRNAs were designed against the following target mRNAs expressed in CHO cells: 1. Matriptase (MT-SP1; also referred to herein as St14), 2. C1r (complement component activated C1r; also referred to as Ctra), 3. C1s (complement component C1sB; also referred to as Gm5077), 4. Plat (t-plasminogen activator) and 5. Prss35 (protease, serine, 35). These target genes encode trypsin-like proteases that are either secreted or transmembrane proteins and thus could be involved in clipping of recombinantly expressed proteins that are secreted into the cell culture medium. It was confirmed in advance that these proteins are expressed by the CHO cells. Table 2 provides an overview over the respective target genes:
(§2) RNAi transfection of CHO-K1 derived cells was performed using Lipofectamine® RNAiMAX Reagent (Life Technology, cat. 13778), following the ‘Reverse Transfection Protocol’ of the manual MAN0001182, scaled up for 6-well plates. For each mRNA target, the two most efficient concentrations of RNAi duplex molecules were used among 100, 125 and 150 pmol: 125 and 150 pmol for MT-SP1 (St14), 125 and 150 pmol for C1r (C1ra), 100 and 125 pmol for Cis (Gm5077), 125 and 150 pmol for Plat and 100 and 125 pmol for Prss35. RNAi duplex molecules of the two selected concentrations were diluted in 1 ml Opti-MEM® (Gibco, cat. 31985-062). As RNAi negative control (siRNA negative control), the Silencer@ Negative Control No. 1 siRNA (AM4611) was used (at 125 pmol). 5 μl Lipofectamine® RNAiMAX Reagent was added in each well. 2 ml of a cell suspension with a concentration of 0.5×10^6 cells/ml were added and plates were incubated at 37° C. and 10% CO2. Three days after transfection, cell density was measured, total RNA of 3×10^6 viable cells was extracted using RNeasy Plus Mini Kit (Qiagen, cat. 74134) and conditioned medium was collected from each well. To control the silencing effect on the target genes, mRNA expression was determined by real-time RT-PCR.
(Quantitative PCR measures a nucleic acid by following its amplification.)

The next data set relates to C1s (Gm5077) mRNA. The data set is described as above. In kind it is cell-based, Chinese hamster. The following applies: for residual protease gene-expression: siRNA negative control cells = 100%. The method, then: as §1, §2
Data set [1] concerns Matriptase (MT-SP1, St14) mRNA. Described as above. The conditions noted are these: for residual protease gene-expression: siRNA negative control cells = 100%, three days after transfection. The data set is classed as cell-based, Chinese hamster. The method, then: as §1, §2
The next data set relates to Plat mRNA. The description is as above. The data set is classed as cell-based, Chinese hamster. The following applies: for residual protease gene-expression: siRNA negative control cells = 100%. On the procedure:
as §1, §2

A further data set relates to Prss35 mRNA. The data set is described as above. The conditions noted are these: for residual protease gene-expression: siRNA negative control cells = 100%. The data set is classed as cell-based, Chinese hamster. The method, then: as §1, §2
The next data set has as its target T1, matriptase (Homo sapiens, UniProt Q9Y5Y6).
T1 sequence (Q9Y5Y6 1-855): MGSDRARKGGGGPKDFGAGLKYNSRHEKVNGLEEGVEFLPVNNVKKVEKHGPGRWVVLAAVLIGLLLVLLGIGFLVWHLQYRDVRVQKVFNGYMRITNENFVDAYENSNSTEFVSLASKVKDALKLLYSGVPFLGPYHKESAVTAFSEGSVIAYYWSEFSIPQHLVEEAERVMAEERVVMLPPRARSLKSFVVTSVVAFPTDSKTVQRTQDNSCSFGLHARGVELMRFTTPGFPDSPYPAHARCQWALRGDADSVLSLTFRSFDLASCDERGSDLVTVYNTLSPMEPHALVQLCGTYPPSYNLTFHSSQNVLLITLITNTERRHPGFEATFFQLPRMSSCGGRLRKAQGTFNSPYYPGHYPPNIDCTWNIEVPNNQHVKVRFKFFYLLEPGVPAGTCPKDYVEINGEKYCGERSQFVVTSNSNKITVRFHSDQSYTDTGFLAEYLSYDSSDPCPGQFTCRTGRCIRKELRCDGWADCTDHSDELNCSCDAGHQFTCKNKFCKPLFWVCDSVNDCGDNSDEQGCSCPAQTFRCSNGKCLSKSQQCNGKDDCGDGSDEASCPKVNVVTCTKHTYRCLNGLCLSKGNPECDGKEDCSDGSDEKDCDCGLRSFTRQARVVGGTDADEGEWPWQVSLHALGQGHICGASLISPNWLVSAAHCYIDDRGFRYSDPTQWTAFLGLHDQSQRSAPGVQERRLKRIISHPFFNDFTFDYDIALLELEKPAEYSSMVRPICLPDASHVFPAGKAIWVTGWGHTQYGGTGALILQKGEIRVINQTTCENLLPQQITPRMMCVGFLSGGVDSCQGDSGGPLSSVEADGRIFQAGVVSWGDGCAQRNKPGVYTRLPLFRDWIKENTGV
The following applies: Forbs et al. 2005; Desilets et al. 2006; cited from earlier work.

Values joined by “and” are separate entries in the source; they are usually repeats but may differ in a detail not shown here. Identical values can stand only once.

Turning to “C1r (C1ra): siRNA against C1ra mRNA, sense SEQ ID NO: 8, antisense SEQ ID NO: 9 (sense GAUGUCUUUUCUCAAAAUATT; antisense UAUUUUGAGAAAAGACAUCAT; chemistry not given here)”, the residual protease gene-expression in the data set on C1r (C1ra) mRNA (125 pmol siRNA) is reported as 6.3%; in the data set on C1r (C1ra) mRNA (150 pmol siRNA) it was 6.7%. Further, the mRNA reduction in the data set with C1r (C1ra) mRNA (two siRNA concentrations) was 93.7% and 93.3%.
With “C1s (Gm5077): siRNA against Gm5077 (C1s) mRNA, sense SEQ ID NO: 10, antisense SEQ ID NO: 11 (sense CGCUGAACGUGUGAUUAUUTT; antisense AAUAAUCACACGUUCAGCGGT; chemistry not given here)”, the residual protease gene-expression in the data set on C1s (Gm5077) mRNA (100 pmol siRNA) was determined as 11.9%; in the data set with C1s (Gm5077) mRNA (125 pmol siRNA), 14.4%. In the data set with C1s (Gm5077) mRNA (two siRNA concentrations, listed as Cis (Gm5077)), the mRNA reduction is 88.1% and 85.6%.
Regarding “MT-SP1: siRNA against matriptase mRNA, sense SEQ ID NO: 6, antisense SEQ ID NO: 7 (sense GCAAGAUCACUGUUCGCUUTT; antisense AAGCGAACAGUGAUCUUGCTG; chemistry not given here)”, the results for the residual protease gene-expression in data set [1] (125 pmol siRNA) and in data set [1] (150 pmol siRNA) were 18.6% and 18.2%, respectively. Further, the “MT-SP1 suppressed in comparison to the negative control” value in data set [1] (two set-ups (125 and 150 pmol siRNA)) was 81.4% and 81.8%.
Take “Plat: siRNA against Plat mRNA, sense SEQ ID NO: 12, antisense SEQ ID NO: 13 (sense GAAACAAGAUGAAGACAGATT; antisense UCUGUCUUCAUCUUGUUUCCC; chemistry not given here)”: the residual protease gene-expression came out at 8.3% in the data set on Plat mRNA (125 pmol siRNA) and 5.1% with Plat mRNA (150 pmol siRNA). Moreover, the mRNA reduction with Plat mRNA (two siRNA concentrations) was 91.7% and 94.9%.
On to “Prss35: siRNA against Prss35 mRNA, sense SEQ ID NO: 14, antisense SEQ ID NO: 15 (sense GGCCUUAGACUACGACUAUTT; antisense AUAGUCGUAGUCUAAGGCCGG; chemistry not given here)”, for which the residual protease gene-expression in the data set with Prss35 mRNA (100 pmol siRNA) is given as 18.4%; in the data set on Prss35 mRNA (125 pmol siRNA) it was 14.8%. The mRNA reduction in the data set on Prss35 mRNA (two siRNA concentrations) is 81.6% and 85.2%.
For eglin c, at matriptase, the Ki was 0.018 µM.
